Several values for one entry are separate records, joined by “and”; a condition that tells them apart may be missing. Equal values may be shown once.
What was measured:
HepaRG cells [1] = assay: PA and PANO content in cell culture medium of HepaRG cells upon pharmacological transporter inhibition (LC-MS/MS); format: in vitro ADME, human; details: HepaRG, 2.5 µM PA, 4, 8, 24 h; CsA 10 µM, Ko143 5 µM, MK-571 50 µM, Qu 100 µM, TEA 3 mM
Method: (§1) In the case of TEA, cells were pre-incubated 24 h prior to PA treatment. The inhibitors were applied anew at PA incubation.
(§2) In order to measure time-dependent depletion of PA and PANO content in cell culture medium, cells were seeded at a density of 0.2 × 10^6 cells per well in a 6-well plate and cultivated as described in Section 4.2. After four weeks of cultivation, cells were adapted to serum-free medium and medium substituted with insulin, transferrin, selenium (ITS) serum extender (Capricorn Scientific, Ebsdorfergrund, Germany) 48 h prior to PA incubation for optimal LC-MS/MS measurements. […] Samples were taken after 2 h, 4 h, 8 h and 24 h.
(§3) Briefly, chromatographic separation of PA/PANO analytes was achieved on a 50 × 2.1 mm Kinetex ™ 2.6 μm CoreShell EVO C18 100 Å column protected by a SecurityGuard ™ ULTRA EVO C 18 2.1 mm guard column (both Phenomenex, Aschaffenburg, Germany) at a flow rate of 0.4 mL/min on a Shimadzu high performance liquid chromatography (HPLC) apparatus (LC-20AB, SIL-20AC HT, CTO-20AC, CBM-20A, Duisburg, Germany) coupled to an API4000 triple quadrupole MS (Sciex, Darmstadt, Germany). The following MS parameters were used for measurements in positive electrospray ionisation (ESI+) mode: ionisation voltage 2500 V, nebuliser gas 50 psi, heating gas 50 psi, curtain gas 30 psi, temperature 600 °C, collision gas level 7. The substance specific parameters are summarized in Kaltner et al. 2019 [79].

HepaRG cells [2] = assay: Cell viability (MTT assay) of HepaRG cells with and without transporter inhibitors; format: cell-based, human; details: HepaRG
Method: as §1
To analyze the cytotoxic effects of PAs on HepaRG cells with non-inhibited and inhibited hepatic transporters, the cells were seeded at a density of 9000 cells per well in the inner 60 wells of a 96-well plate and cultivated as described in Section 4.2. After four weeks of cultivation, FBS concentration in the cell culture medium was reduced to 2% for 48 h prior incubation. Thereby, inhibitory effects of peptide growth factors from the FBS on xenobiotic-metabolizing enzymes were minimized. […] The cells were pre-incubated with pharmacological inhibitors as described in Section 4.3. […] Cell viability was analyzed via the MTT test. 10 µl MTT reagent (5 mg/mL MTT dissolved in phosphate-buffered saline, PBS) was added per well and incubated for 1 h at 37 °C. The supernatant was discarded, and the violet formazan crystals dissolved in 130 µL desorption solution (0.7% sodium dodecyl sulfate in propan-2-ol). After shaking for 20 min (under protection from light), absorbance was measured on a TecanM200Pro spectrometer (Tecan Group Ltd., Männedorf, Switzerland) at a wavelength of 570 nm, along with a reference wavelength of 630 nm.

HepaRG cells [3] = assay: Time-dependent PA depletion and PANO formation in cell culture medium of HepaRG cells at 37 °C and 4 °C (LC-MS/MS); details: for PA content in cell culture medium, Mean [%]: 700 nM PA, percent of initial PA concentration; for uptake and toxicity (grading): Figure 2a, toxicity grading with ref 41
Method: as §2, §3

SLC22A1 = target: T1, SLC22A1 (Homo sapiens, UniProt O15245); assay: ASP+ (SLC22A1 substrate) uptake measurement in HepaRG cells; format: cell-based; details: for fluorescence [%], MW [%]: solv ctrl = 100
T1 construct: For measuring the uptake of ASP^+ in HepaRG cells incubated with PAs; endogenous in cells; host or cells: differentiated HepaRG cells (human hepatoma)
T1 sequence (O15245 1-554): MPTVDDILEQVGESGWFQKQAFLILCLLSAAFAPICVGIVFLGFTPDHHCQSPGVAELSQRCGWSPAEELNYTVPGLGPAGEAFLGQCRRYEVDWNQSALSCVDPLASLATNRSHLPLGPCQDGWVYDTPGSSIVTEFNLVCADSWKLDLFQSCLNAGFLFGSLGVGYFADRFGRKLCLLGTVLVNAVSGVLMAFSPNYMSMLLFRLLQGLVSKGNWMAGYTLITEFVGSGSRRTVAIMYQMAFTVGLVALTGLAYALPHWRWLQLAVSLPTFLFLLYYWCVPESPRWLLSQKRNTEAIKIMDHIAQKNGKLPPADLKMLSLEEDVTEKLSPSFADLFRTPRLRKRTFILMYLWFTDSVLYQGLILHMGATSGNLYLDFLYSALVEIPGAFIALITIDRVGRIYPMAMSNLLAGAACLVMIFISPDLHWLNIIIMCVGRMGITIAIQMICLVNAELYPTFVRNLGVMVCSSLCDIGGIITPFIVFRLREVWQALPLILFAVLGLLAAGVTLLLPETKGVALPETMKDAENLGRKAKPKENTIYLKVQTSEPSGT
Method: ASP^+ is an organic cationic mitochondrial dye that only fluoresces inside cells so that fluorescence measured in the cell culture medium can be neglected. […] In parallel, cells were incubated with Qu (100 µM) and TEA (3 mM) as mentioned in Section 4.3. After 24 h, cells were incubated with 1 µM ASP^+ in Hanks’ balanced salt solution (HBSS, Sigma-Aldrich, Taufkirchen, Germany) at 37 °C. Fluorescence was measured after 20 min at ASP^+-specific wavelength (λex = 475 nm and λem = 605 nm) on a TecanM200Pro spectrometer (Tecan Group Ltd., Männedorf, Switzerland) according to Ahlin et al., (2008).

Molecule | PA content in cell culture medium, Mean [%] (HepaRG cells [3]; HepaRG, 4 °C (cold), 4h) | PA content in cell culture medium, Mean [%] (HepaRG cells [3]; HepaRG, 4 °C (cold), 24h) | PA content in cell culture medium, Mean [%] (HepaRG cells [3]; HepaRG, 37 °C (warm), 2h) | PA content in cell culture medium, Mean [%] (HepaRG cells [3]; HepaRG, 37 °C (warm), 4h) | PA content in cell culture medium, Mean [%] (HepaRG cells [3]; HepaRG, 37 °C (warm), 8h) | PA content in cell culture medium, Mean [%] (HepaRG cells [3]; HepaRG, 37 °C (warm), 24h) | uptake and toxicity (grading) (HepaRG cells [3]; HepaRG) | PA in medium, Mean [%] (HepaRG cells [3]; cold, 0h) | PA in medium, single replicates (repl.) (HepaRG cells [3]; cold, 0h) [%] | PA in medium, single replicates (repl.) (HepaRG cells [3]; cold, 2h) | PA in medium, Mean [%] (HepaRG cells [3]; cold, 4h) | PA in medium, single replicates (repl.) (HepaRG cells [3]; cold, 4h) | PA in medium, Mean [%] (HepaRG cells [3]; cold, 8h) | PA in medium, single replicates (repl.) (HepaRG cells [3]; cold, 8h) | PA in medium, Mean [%] (HepaRG cells [3]; cold, 24h) | PA in medium, single replicates (repl.) (HepaRG cells [3]; cold, 24h) | PA in medium, Mean [%] (HepaRG cells [3]; warm, 0h) | PA in medium, single replicates (repl.) (HepaRG cells [3]; warm, 0h) [%] | PA in medium, Mean [%] (HepaRG cells [3]; warm, 2h) | PA in medium, single replicates (repl.) (HepaRG cells [3]; warm, 2h) | also measured
COc1ccc2c3c([nH]c2c1)[C@H](CC(C)C)N1C(=O)[C@H](CCC(=O)OC(C)(C)C)NC(=O)[C@@H]1C3 [Ko143, reference compound] | – | – | – | – | – | – | – | – | – | – | – | – | – | – | – | – | – | – | – | – | effect of inhibitor on retrorsine and senecionine uptake and PANO formation (HepaRG cells [1]): did not alter retrorsine and senecionine uptake and PANO formation; effect of inhibitor on PA-mediated cytotoxicity (HepaRG cells [2]; 250 µM retrorsine or senecionine, MTT, 24 h, versus 250 µM PA only): did not alter the cytotoxic effects of retrorsine and senecionine; Cell viability (MTT), percent of solvent control, Mean [%] (HepaRG cells [2]; no PA, inhibitor alone 24 h: CsA 10 µM, Ko143 5 µM, MK571 50 µM, Qu 100 µM, TEA 3 mM): 98.3595%
C/C=C(/C)C(=O)O[C@H]1CCN2CC=C(COC(=O)[C@@](O)([C@@H](C)O)C(C)(C)O)[C@H]12 [Heliosupine, heliosupine] | 87.9748 | 78.8823 | 59.8398 | 37.2399 | 12.933 | 0.2071 | strong | 100 | 100 | 95.0989% and 96.7114% | 98.142 | 94.7313% and 89.2662% and 110.429% | 98.6729 | 94.1093% | 85.6503 | 84.4985% and 86.6382% | 100 | 100 | 66.3099 | 44.4302% and 65.8608% and 88.6387% | PA content in cell culture medium, Mean [%] (HepaRG cells [3]; HepaRG, 4 °C (cold), 2h): 91.4819%; PA content in cell culture medium, Mean [%] (HepaRG cells [3]; HepaRG, 4 °C (cold), 8h): 89.7595%; PA content in cell culture medium, Mean [%] (HepaRG cells [3]; HepaRG, 37 °C (warm), 0h): 95.6507%; reduction of PA content in the supernatant (HepaRG cells [3]; HepaRG, 37 °C, after 24 h, 700 nM): highest decline; PA in medium, Mean [%] (HepaRG cells [3]; warm, 4h): 41.9165%; PA in medium, single replicates (repl.) (HepaRG cells [3]; warm, 4h): 27.0977% and 40.0579% and 58.5941%; PA in medium, Mean [%] (HepaRG cells [3]; warm, 8h): 15.145%; PA in medium, single replicates (repl.) (HepaRG cells [3]; warm, 8h): 8.52% and 13.2978% and 23.6169%; PA in medium, Mean [%] (HepaRG cells [3]; warm, 24h): 0.2418%; PA in medium, single replicates (repl.) (HepaRG cells [3]; warm, 24h): 0.3741% and 0.0766% and 0.2748%
retrorsine | – | – | – | – | – | – | – | – | – | – | – | – | – | – | – | – | – | – | – | – | fluorescence [%], MW [%] (SLC22A1; 1 µM): 89.2606%; fluorescence [%], MW [%] (SLC22A1; 10 µM): 46.6068%; fluorescence [%], MW [%] (SLC22A1; 50 µM): 25.7608%; fluorescence [%], MW [%] (SLC22A1; 100 µM): 25.133%; fluorescence [%], MW [%] (SLC22A1; 250 µM): 21.5057%; interaction with SLC22A1 (SLC22A1; HepaRG): both inhibitors and substrates; minimum concentration inhibiting uptake of the SLC22A1-specific substrate ASP+ (SLC22A1; HepaRG, 24 h): 10 µM
C/C=C(/C)C(=O)O[C@@H]1CCN2CC=C(COC(=O)[C@@](O)([C@H](C)O)C(C)(C)O)[C@H]12 [Echimidine, echimidine] | 98.8433 | 89.3074 | 85.2823 | 68.4318 | 40.2531 | 3.384 | medium | 100 | 100 | 86.5736% | 92.1476 | 83.0216% and 84.3494% | 94.8515 | 82.9788% and 110.397% | 82.2598 | 57.2342% and 76.5517% | 100 | 100 | 80.9264 | 77.0539% and 95.3255% | PA in medium, Mean [%] (HepaRG cells [3]; cold, 2h): 97.014%; PA in medium, Mean [%] (HepaRG cells [3]; warm, 4h): 64.0995%; PA in medium, single replicates (repl.) (HepaRG cells [3]; warm, 4h): 50.2783% and 58.3297% and 83.6904%; PA in medium, Mean [%] (HepaRG cells [3]; warm, 8h): 36.9411%; PA in medium, single replicates (repl.) (HepaRG cells [3]; warm, 8h): 23.0433% and 32.0944% and 55.6854%; PA in medium, Mean [%] (HepaRG cells [3]; warm, 24h): 2.921%; PA in medium, single replicates (repl.) (HepaRG cells [3]; warm, 24h): 0.7358% and 1.728% and 6.298%
